Reference: patent US20230140941A1, “NON-ATP/CATALYTIC SITE P38 MITOGEN ACTIVATED PROTEIN KINASE INHIBITORS” (UNIVERSITY OF MARYLAND, BALTIMORE, priority 2020, published 2023)

How the values were obtained:
[1] = test system: patients with hypercholesterolemia; settings: cited from earlier work
LPS-induced lung injury = assay: Mouse acute lung injury, treatment 6 h post-LPS (FIG. 10); assay type: in vivo; settings: 50 μg LPS i.t., 24 h at 39° C., 1 mg in 0.5 ml DMSO 6 h post-LPS
Protocol: All mice received 50 μg LPS i.t. and were kept 24 h at 39° C.; all treatments 1 mg in 0.5 ml DMSO given 6 h post-LPS; mean±SM, n=5, * p=0.03 vs DMSO #1; † p=0.16 vs DMSO #2. Lung injury was assessed by measuring total protein in the lung lavage fluid.
(§1) First, the compounds can block thrombin-induced cell permeability in human vascular endothelial cells (FIG. 8). […] Mice were pretreated i.p. with 1 mg of test compounds and then treated with […] LPS i.t. at 39° C. to induce inflammation. Lung injury was assessed by measuring total protein in the lung lavage fluid. […] All mice received 50 μg LPS i.t. and were kept 24 h at 39° C.; all treatments 1 mg in 0.5 ml DMSO given 6 h post-LPS; mean±SM, n=5, * p=0.03 vs DMSO #1; † p=0.16 vs DMSO #2. Lung injury was assessed by measuring total protein in the lung lavage fluid.

[2] = test system: patients with Crohn's disease; settings: cited from earlier work
[3] = test system: LPS-induced lung inflammation; assay: Mouse acute lung injury, pretreatment i.p. 1 mg (FIG. 9); assay type: in vivo; settings: pretreated i.p. 1 mg, then 100 mg LPS i.t. at 39° C.
Protocol: Mice were pretreated i.p. with 1 mg of test compounds and then treated with […] LPS i.t. at 39° C. to induce inflammation. Lung injury was assessed by measuring total protein in the lung lavage fluid.
as §1

recombinant ERK2 = recombinant ERK2 (Homo sapiens, UniProt P28482); assay: Differential scanning fluorimetry (DSF), ERK2; assay type: binding; settings: for ERK2 ΔTm (° C.) @100 μM: change in melting temperature relative to DMSO control in DSF assay; for stabilization of ERK2 in DSF: 10-100 μM
Chain of recombinant ERK2 (P28482 whole entry, species assumed): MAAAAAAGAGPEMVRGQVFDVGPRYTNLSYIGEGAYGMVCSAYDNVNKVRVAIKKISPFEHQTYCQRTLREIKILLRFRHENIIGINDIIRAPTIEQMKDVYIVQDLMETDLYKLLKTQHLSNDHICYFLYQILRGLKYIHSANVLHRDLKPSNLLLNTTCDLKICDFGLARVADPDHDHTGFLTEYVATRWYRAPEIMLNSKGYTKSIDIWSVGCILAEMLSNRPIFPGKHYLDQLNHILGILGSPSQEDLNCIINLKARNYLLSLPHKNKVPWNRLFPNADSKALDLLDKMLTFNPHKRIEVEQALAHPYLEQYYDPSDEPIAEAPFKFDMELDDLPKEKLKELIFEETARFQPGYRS

HMVECL monolayers = assay: Endothelial permeability assay (10 kDa dextran flux); assay type: cell-based, human; settings: TNFα and 39.5° C. for 6 h
Protocol: Endothelial permeability assay: Permeability of HMVECL monolayers was assessed by measuring transendothelial flux of 10 kDa dextran conjugated to Cascade blue fluorescent dye for 30 min at 37° C. in Matrigel-coated 3 μm pore size Transwell plates.

[4] = test system: IL-8-directed neutrophil TEM through HMVECLs; assay: Neutrophil transendothelial migration (TEM) assay; assay type: cell-based, human; settings: HMVECLs 39.5° C. 6 h
Protocol: Neutrophil transendothelial migration (TEM) assay: Neutrophils were isolated from heparinized venous blood that was collected from healthy volunteers using a protocol approved by the University of Maryland Institutional Review Board and TEM of calcein-labeled neutrophils through HMVECLs was measured.

HMVECLs [5] = assay: Cytotoxicity, MTS assay; assay type: cell-based, human; settings: 100 μM for 48 h
HMVECLs [6] = assay: Cytotoxicity, LDH release; assay type: cell-based, human; settings: 100 μM for 48 h
[7] = biological target: unphosphorylated recombinant human p38α (Homo sapiens, UniProt Q16539); assay: Differential scanning fluorimetry (DSF), p38α; settings: for p38α ΔTm (° C.) @100 μM: change in melting temperature relative to DMSO control in DSF assay; for increase in melting temperature of p38α: added at 100 μM
Chain of unphosphorylated recombinant human p38α (Q16539 whole entry): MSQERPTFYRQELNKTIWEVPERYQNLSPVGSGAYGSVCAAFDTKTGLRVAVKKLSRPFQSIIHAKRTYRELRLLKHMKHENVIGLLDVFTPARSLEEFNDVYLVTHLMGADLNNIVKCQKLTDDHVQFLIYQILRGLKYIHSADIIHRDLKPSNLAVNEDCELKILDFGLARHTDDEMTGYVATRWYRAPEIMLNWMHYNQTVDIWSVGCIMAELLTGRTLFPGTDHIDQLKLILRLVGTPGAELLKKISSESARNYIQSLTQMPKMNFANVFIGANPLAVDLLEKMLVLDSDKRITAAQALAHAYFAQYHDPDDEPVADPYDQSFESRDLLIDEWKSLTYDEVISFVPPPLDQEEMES

[8] = test system: LPS/hyperthermia-induced ALI; assay: Mouse LPS/hyperthermia-induced acute lung injury model, pretreatment; settings: for mice died within 24 h: 1000 μg i.p. 30 min prior to 50 μg LPS i.t. and hyperthermia
rheumatoid arthritis = settings: two trials; cited from earlier work
[9] = test system: patients at-risk for ARDS; settings: cited from earlier work
p38β [10] = biological target: T1, p38β (Homo sapiens, UniProt Q15759); assay: Differential scanning fluorimetry (DSF), p38β; assay type: binding
T1 construct: HA (N); made in house; host or cells: E. coli BL21
T1 sequence (Q15759 whole entry): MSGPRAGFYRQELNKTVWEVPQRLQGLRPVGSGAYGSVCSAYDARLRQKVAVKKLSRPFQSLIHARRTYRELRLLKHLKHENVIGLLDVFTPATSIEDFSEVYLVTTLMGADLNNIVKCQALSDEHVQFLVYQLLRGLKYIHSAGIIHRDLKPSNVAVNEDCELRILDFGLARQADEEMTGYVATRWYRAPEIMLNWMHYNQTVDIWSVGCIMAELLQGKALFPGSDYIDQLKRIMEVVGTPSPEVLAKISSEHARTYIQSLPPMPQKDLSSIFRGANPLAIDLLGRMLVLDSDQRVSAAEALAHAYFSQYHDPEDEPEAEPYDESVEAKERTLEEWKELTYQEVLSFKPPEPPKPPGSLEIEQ

[11] = biological target: T2, p38α mutant (R49K/HL 107-8TF/K165R) (Homo sapiens, UniProt Q16539, H107T/K165R/L108F/R49K); assay: DSF, p38α mutant with 4 mutations in CADD-targeted pocket; assay type: binding; settings: four of ten target pocket amino acids substituted
T2 construct: made in house; host or cells: E. coli BL21
T2 sequence (Q16539 whole entry R49K/H107T/L108F/K165R): as the sequence (Q16539 whole entry) above, with R49K, H107T, L108F, K165R counted along it

p38α = biological target: T3, p38α (Homo sapiens, UniProt Q16539); assay: STD-NMR, p38α; assay type: binding; settings: 200 μM UM101, 5 μM protein
T3 construct: made in house; host or cells: E. coli BL21
T3 sequence (Q16539 whole entry): as the sequence (Q16539 whole entry) above
Protocol: (§2) Spectra were recorded on an Agilent DD2 500-MHz spectrometer equipped with a 5-mm inverse HFCN probe head at 300 K. During each transient, the protein was saturated with a series of 58 […]-shaped pulses (50 ms, 1 ms delay between pulses) using the vendor-supplied STD-ES pulse sequence, for a total saturation time of 3 seconds. The on-resonance irradiation of protein was done at 0.5 ppm and off-resonance irradiation at 30 ppm. The vendor-supplied WATERGATE pulse sequence was used to suppress the water signal in the STD spectrum. The on-resonance and off-resonance pulse sequences were subtracted internally. A total of 16,384 transients were collected for each STD experiment with a 1 second delay between acquisitions, 6000 Hz spectral width, and 1.3 second acquisition time.

p38β [12] = biological target: T1, p38β; assay: STD-NMR, p38β; assay type: binding; settings: 200 μM UM101, 5 μM protein
Protocol: as §2

mutated p38α = biological target: T4, mutated p38α (Homo sapiens, UniProt Q16539, H107T/K165R/L108F/R49K); assay: STD-NMR, mutated p38α; assay type: binding; settings: 200 μM UM101, 5 μM protein
T4 construct: made in house; host or cells: E. coli BL21
T4 sequence (Q16539 whole entry R49K/H107T/L108F/K165R): as the sequence (Q16539 whole entry) above, with R49K, H107T, L108F, K165R counted along it
Protocol: as §2

[13] = test system: p38-dependent phosphorylation of MK2; assay: Inhibition of substrate phosphorylation in HeLa cells, MK2; assay type: cell-based, human; settings: 10 μM SB203580 or 50 μM UM101 30 min, then anisomycin
Excerpt: (§3) Cell extracts prepared in RIPA buffer containing protease and phosphatase inhibitors were resolved by SDS-PAGE, transferred to PVDF membrane, blocked with 5% nonfat dry milk, probed with primary antibodies against phosphorylated MK2 and Stat-1, and total p38α as a loading control. Bands were detected using secondary antibodies conjugated to infrared fluorophores and infrared fluorescence imaging (Odyssey; LICOR).

[14] = test system: p38-dependent phosphorylation of Stat-1; assay: Inhibition of substrate phosphorylation in HeLa cells, Stat-1; assay type: cell-based, human; settings: 10 μM SB203580 or 50 μM UM101 30 min, then anisomycin
Excerpt: as §3

p38α vs. p38β = settings: cited from earlier work
HMVECLs [15] = assay: TNFα-induced gene expression in HMVECLs (RNASeq); settings: 10 μM SB203580

Cc1c(F)cc(C(=O)NC2CC2)cc1-c1ccc(C(=O)NCC(C)(C)C)cn1 [losmapimod]
serum CRP [1]: reduced serum CRP | vascular relaxation [1]: improved vascular relaxation

CN(C)c1cccc2c(S(=O)(=O)Nc3ccc(CN4CCOCC4)cc3)cccc12 [SF-7-044]
protein leak into bronchoalveolar lavage fluid (total protein) (LPS-induced lung injury): reduced protein leak

Cc1ccc(-n2nc(C(C)(C)C)cc2NC(=O)Nc2ccc(OCCN3CCOCC3)c3ccccc23)cc1 [BIRB 796]
clinical effect [2]: no clinical effect | serum CRP levels [2]: transiently reduced

CN(C)c1cccc2c(S(=O)(=O)Nc3ccc(CN4CCS(=O)(=O)CC4)cc3)cccc12 [SF-6-222]
protein leak into bronchoalveolar lavage fluid (total protein) [3]: reduced protein leak | protein leak into bronchoalveolar lavage fluid (total protein) (LPS-induced lung injury): reduced protein leak

O=C(Nc1ccc(CN2CCOCC2)cc1)c1ccc(Cl)cc1 [SF-7-009]
protein leak into bronchoalveolar lavage fluid (total protein) [3]: reduced protein leak | protein leak into bronchoalveolar lavage fluid (total protein) (LPS-induced lung injury): reduced protein leak

O=C1c2cc(S(=O)(=O)NCCO)ccc2-c2ccc(S(=O)(=O)NCCO)cc21 [UM60, N2,N7-di(2-hydroxyethyl)-9-oxo-9H-2,7-fluorenedisulfonamiide]
ERK2 ΔTm (° C.) @100 μM (recombinant ERK2): 0.195 °C | stabilization of ERK2 in DSF (recombinant ERK2): not ERK2 | reduction of TNFα/hyperthermia-induced permeability increase for 10 kDa dextran (HMVECL monolayers; 10 μM): no effect | reduction of TNFα/hyperthermia-induced permeability increase for 10 kDa dextran (HMVECL monolayers; 25 μM): no effect | reduction of TNFα/hyperthermia-induced permeability increase for 10 kDa dextran (HMVECL monolayers; 100 μM): 71% | reduction of hyperthermia-augmented increase in neutrophil TEM ([4]; 10 μM): 18% | reduction of hyperthermia-augmented increase in neutrophil TEM ([4]; 25 μM): 89% | reduction of hyperthermia-augmented increase in neutrophil TEM ([4]; 50 μM): less than baseline levels | toxicity in MTS assay (HMVECLs [5]): Neither compound was toxic | toxicity in LDH release assay (HMVECLs [6]): Neither compound was toxic | stabilization of p38α in DSF [7]: stabilized p38α | p38α ΔTm (° C.) @100 μM [7]: 0.735 °C | increase in melting temperature of p38α [7]: ~0.7 °C | mice died within 24 h [8]: Four of six

NC(=O)c1ccc(N(C(N)=O)c2c(F)cccc2F)nc1-c1ccc(F)cc1F [VX-702]
proportion of treated subjects with ACR20 symptom score vs. placebo (rheumatoid arthritis): small increases

Cc1cc(F)ccc1-c1nc(NC(CO)CO)nc2c1ccc(=O)n2-c1c(F)cccc1F [dilmapimod]
safety [9]: safe at the doses administered | serum C-reactive protein (CRP) levels [9]: modestly reduced

O=C(Nc1ccc(CN2CCS(=O)(=O)CC2)cc1)c1ccc(Cl)cc1 [UM101, 4-chloro-N-{4-[(1,1-dioxo-1lambda˜6˜-,4thiazinan-4-yl)methyl]phenyl}benzaniide]
ERK2 ΔTm (° C.) @100 μM (recombinant ERK2): 0.0175 °C | stabilization of ERK2 in DSF (recombinant ERK2): not ERK2 | stabilization of p38β in DSF (p38β [10]): only stabilized p38α | binding to p38α mutant in DSF [11]: no UM101-binding | interaction with p38α in STD-NMR (p38α): protons in both aromatic rings of UM101 interact with p38α | interaction with p38β in STD-NMR (p38β [12]): much weaker | interaction with mutated p38α in STD-NMR (mutated p38α): much weaker | reduction of TNFα/hyperthermia-induced permeability increase for 10 kDa dextran (HMVECL monolayers; 10 μM): 74% | reduction of TNFα/hyperthermia-induced permeability increase for 10 kDa dextran (HMVECL monolayers; 25 μM): 89% | reduction of TNFα/hyperthermia-induced permeability increase for 10 kDa dextran (HMVECL monolayers; 100 μM): > 100% | reduction of hyperthermia-augmented increase in neutrophil TEM ([4]; 10 μM): 95% | reduction of hyperthermia-augmented increase in neutrophil TEM ([4]; 25 μM): less than baseline levels | reduction of hyperthermia-augmented increase in neutrophil TEM ([4]; 50 μM): less than baseline levels | toxicity in MTS assay (HMVECLs [5]): Neither compound was toxic | toxicity in LDH release assay (HMVECLs [6]): Neither compound was toxic | anisomycin-stimulated phosphorylation of MK2 (immunoblot) [13]: reduced | anisomycin-stimulated phosphorylation of Stat-1 (immunoblot) [14]: reduced | protein leak into bronchoalveolar lavage fluid (total protein) [3]: reduced protein leak | stabilization of p38α in DSF [7]: only stabilized p38α | p38α ΔTm (° C.) @100 μM [7]: 0.667 °C | increase in melting temperature of p38α [7]: ~0.7 °C | reduction of lavage neutrophil content vs. DMSO-treated controls ([8]; 100 μg i.p.): 44.4% | reduction of lavage neutrophil content vs. DMSO-treated controls ([8]; 300 μg i.p.): 49.5% | reduction of lavage neutrophil content vs. DMSO-treated controls ([8]; 500 μg i.p.): 55.3% | reduction of lavage neutrophil content vs. DMSO-treated controls ([8]; 1000 μg i.p.): 54% | mice survived (24 h) ([8]; 100, 300, 500 or 1000 μg i.p. 30 min prior to 50 μg LPS i.t. and hyperthermia): All sixteen

C[S+]([O-])c1ccc(-c2nc(-c3ccncc3)c(-c3ccc(F)cc3)[nH]2)cc1 (centres unmarked) [SB203580, reference compound]
stabilization of p38β in DSF (p38β [10]): stabilized both p38α and p38β | reduction of TNFα/hyperthermia-induced permeability increase for 10 kDa dextran (HMVECL monolayers; 10 μM): 50% | reduction of hyperthermia-augmented increase in neutrophil TEM ([4]; 10 μM): 84% | anisomycin-stimulated phosphorylation of MK2 (immunoblot) [13]: reduced | anisomycin-stimulated phosphorylation of Stat-1 (immunoblot) [14]: reduced | higher binding affinity for p38α than p38β (p38α vs. p38β): ~10 fold | number of TNFα-induced genes with expression inhibited (HMVECLs [15]): 61 genes | number of genes with expression increased (HMVECLs [15]): 38 genes | reduction of lavage neutrophil content vs. DMSO-treated controls ([8]; 1000 μg i.p.): 46.8% | mice died within 24 h [8]: one of six
